Some test systems named below: Aspergillus fumigatus; Klebsiella pneumoniae; Staphylococcus aureus; Pasteurella multocida; Bibersteinia trehalosi; Escherichia coli JM109; Bacillus subtilis BR151; Pseudomonas haemolytica; Leuconostoc lactis; Listeria innocua; Micrococcus luteus; Streptococcus uberis; Escherichia coli SBS 363; Bacillus pumilus; Pseudomonas aeruginosa; Bacillus cereus; Shigella dysenteriae.

Common to all, as to test: ≥ marks a high value that may be exact or a test limit, other limits are often not marked, values filed in µg/mL are converted to µM
The test system of assay [1] is Mannheimia haemolytica Serovar 2.
Assay [2] concerns Corynebacterium pseudotuberculosis ATCC 19410.
Assay [3] has as its system Mannheimia haemolytica Serovar 1.
Assay [4] deals with Mannheimia haemolytica Serovar 6.
Assay [5] relates to Salmonella enterica subsp. arizonae.
The test system of assay [6] is Pseudomonas aeruginosa PAO1.
For assay [7], the system named is Enterococcus faecium A634.
Assay [8] has as its system Staphylococcus aureus 1206.
The subject of assay [9] is Staphylococcus aureus ATCC 25923.
Assay [10] deals with Staphylococcus epidermidis.
Assay [11] concerns Staphylococcus aureus ATCC 29213.
In assay [12] the test system is Staphylococcus aureus ATCC 12600.
In assay [13] the test system is Pseudomonas aeruginosa ATCC 14502.
For assay [14], the system named is Escherichia coli ATCC 11775.
The subject of assay [15] is Staphylococcus aureus ATCC 6538.
Assay [16] concerns Micrococcus luteus ATCC 49732.
Assay [17] concerns Pseudomonas aeruginosa CCARM 2092.
Assay [18] concerns Escherichia coli KCCM 11569.
Assay [19] relates to Enterococcus faecium CCARM 5029.
Assay [20] deals with Enterococcus faecium CCARM 5028.
Assay [21] concerns Staphylococcus aureus CCARM 3572.
In assay [22] the test system is Bacillus subtilis KCCM 11495.
Assay [23] relates to Pseudomonas aeruginosa CCARM 2095.
The test system of assay [24] is Escherichia coli ATCC 25922.
Assay [25] relates to Acinetobacter calcoaceticus.
For assay [26], the system named is Staphylococcus aureus ATCC 2592.
For assay [27], the system named is Candida albicans ATCC 2002.

For six compounds, MIC results are on record in DBAASP.

Converted amounts (≈) assume the structure as drawn. “And” between values parts separate entries of the source, which are not always exact repeats. Identical values can stand only once.

Turning to `CC[C@H](C)[C@H](NC(=O)[C@H](CCCN=C(N)N)NC(=O)[C@H](CCCN=C(N)N)NC(=O)[C@@H](NC(=O)[C@@H](N)CC(N)=O)[C@@H](C)CC)C(=O)N[C@H](C(=O)N[C@@H](CCCN=C(N)N)C(=O)N[C@@H](CCCCN)C(=O)N[C@H](C(=O)N[C@H](C(=O)N[C@@H](Cc1cnc[nH]1)C(=O)N[C@H](C(=O)N[C@H](C(=O)N[C@@H](CCCCN)C(=O)N[C@@H](CCCCN)C(=O)N[C@@H](Cc1ccc(O)cc1)C(=O)O)[C@@H](C)CC)[C@@H](C)CC)[C@@H](C)CC)[C@@H](C)CC)[C@@H](C)CC` [NIRRIIRKIIHIIKKY], the MIC came to 1.59 µM (≈ 3.3 µg/mL) in assay [1]; 4 µM (≈ 8.3 µg/mL) against Aspergillus fumigatus; 0.818 µM (≈ 1.7 µg/mL) in the assay with Klebsiella pneumoniae; 9.63 µM (≈ 20 µg/mL) in assay [2]; 4.81 µM (≈ 10 µg/mL) with Staphylococcus aureus; 0.722 µM (≈ 1.5 µg/mL) in assay [3]. Also, the MIC in assay [4] stood at 1.59 µM (≈ 3.3 µg/mL); in [5], 2.41 µM (≈ 5 µg/mL); in the assay on Pasteurella multocida it was 0.626 µM (≈ 1.3 µg/mL); in the assay with Bibersteinia trehalosi, 3.61 µM (≈ 7.5 µg/mL); in [6], 2.02 µM (≈ 4.2 µg/mL).
As to `CCC(C)[C@H](NC(=O)CN)C(=O)NCC(=O)N[C@@H](CCCCN)C(=O)N[C@@H](Cc1ccccc1)C(=O)N[C@@H](CC(C)C)C(=O)N[C@@H](Cc1cnc[nH]1)C(=O)N[C@@H](C)C(=O)N[C@@H](C)C(=O)N[C@@H](CCCCN)C(=O)N[C@@H](CCCCN)C(=O)N[C@@H](Cc1ccccc1)C(=O)N[C@@H](C)C(=O)N[C@@H](CCCCN)C(=O)N[C@@H](C)C(=O)N[C@@H](Cc1ccccc1)C(=O)N[C@H](C(=O)N[C@@H](C)C(=O)N[C@@H](CCC(=O)O)C(=O)N[C@H](C(=O)N[C@@H](CCSC)C(=O)N[C@@H](CC(N)=O)C(=O)N[C@@H](CO)C(N)=O)C(C)CC)C(C)C` (stereo not given in full) [GIGKFLHAAKKFAKAFVAEIMNS], the MIC is 2.42 µM (≈ 6 µg/mL) in the assay with Escherichia coli JM109, 20.2 µM (≈ 50 µg/mL) in assay [7], 20.2 µM (≈ 50 µg/mL) in assay [8] and 1.21 µM (≈ 3 µg/mL) in the assay with Bacillus subtilis BR151.
Take `CC[C@H](C)[C@H](NC(=O)[C@@H](NC(=O)[C@@H]1CCCN1C(=O)[C@@H](NC(=O)[C@@H](NC(=O)[C@H](Cc1cnc[nH]1)NC(=O)[C@@H]1CCCN1C(=O)[C@H](CC(C)C)NC(=O)[C@@H](NC(=O)[C@H](Cc1cnc[nH]1)NC(=O)[C@H](CCCCN)NC(=O)[C@H](C)NC(=O)[C@@H](NC(=O)[C@H](C)NC(=O)CNC(=O)[C@H](CC(C)C)NC(=O)[C@@H](NC(=O)[C@H](CO)NC(=O)[C@H](Cc1ccccc1)NC(=O)[C@H](CC(C)C)NC(=O)CN)C(C)C)C(C)C)C(C)C)C(C)C)C(C)C)C(C)C)C(=O)N[C@@H](C)C(=O)N[C@@H](CCC(=O)O)C(=O)N[C@@H](CCCCN)C(=O)N[C@@H](CC(C)C)C(N)=O` [GLFSVLGAVAKHVLPHVVPVIAEKL]: the MIC in the assay with Pseudomonas haemolytica came out at 19.3 µM (≈ 50 µg/mL); against Leuconostoc lactis, 1.16 µM (≈ 3 µg/mL); in assay [9], 2.31 µM (≈ 6 µg/mL); against Listeria innocua, 19.3 µM (≈ 50 µg/mL); in the assay on Micrococcus luteus, 9.64 µM (≈ 25 µg/mL); in assay [10], 4.63 µM (≈ 12 µg/mL). Besides, the MIC turned out to be 4.63 µM (≈ 12 µg/mL) in assay [11], 9.64 µM (≈ 25 µg/mL) against Pasteurella multocida and 9.64 µM (≈ 25 µg/mL) in the assay with Streptococcus uberis.
Take `CC[C@H](C)[C@H](NC(=O)[C@H](C)NC(=O)[C@H](CO)NC(=O)[C@@H](NC(=O)[C@H](C)NC(=O)[C@H](CC(N)=O)NC(=O)[C@@H](NC(=O)[C@H](C)NC(=O)[C@H](Cc1cnc[nH]1)NC(=O)[C@@H]1CCCN1C(=O)[C@@H](NC(=O)[C@H](CC(C)C)NC(=O)[C@H](CO)NC(=O)[C@H](CC(C)C)NC(=O)[C@@H](N)Cc1ccccc1)[C@@H](C)CC)[C@@H](C)CC)C(C)C)C(=O)N[C@@H](C)C(=O)N[C@@H](CCCCN)C(=O)N[C@@H](Cc1cnc[nH]1)C(=O)N[C@@H](Cc1ccccc1)C(N)=O` [FLSLIPHAINAVSAIAKHF]: the MIC in assay [12] stood at 3.6 µM (≈ 7.37 µg/mL); in assay [13] it was 6 µM (≈ 12.3 µg/mL); in assay [14], 7.2 µM (≈ 14.7 µg/mL); in assay [15], 6 µM (≈ 12.3 µg/mL); in the assay on Escherichia coli SBS 363, 6 µM (≈ 12.3 µg/mL); in [16], 1.8 µM (≈ 3.69 µg/mL).
Consider `CC(C)C[C@H](NC(=O)CNC(=O)[C@H](CCCCN)NC(=O)[C@H](CCCCN)NC(=O)[C@H](CC(C)C)NC(=O)[C@H](CC(C)C)NC(=O)[C@H](C)NC(=O)[C@H](CC(N)=O)NC(=O)[C@H](CC(C)C)NC(=O)[C@H](Cc1c[nH]c2ccccc12)NC(=O)[C@@H](N)CCCCN)C(=O)N[C@@H](CC(N)=O)C(=O)N[C@@H](CS)C(=O)N[C@@H](C)C(=O)N[C@@H](CCCCN)C(=O)NCC(=O)N[C@H](C(=O)N[C@@H](CC(C)C)C(=O)N[C@@H](C)C(N)=O)C(C)C` [KWLNALLKKGLNCAKGVLA], for which the MIC in assay [17] was 1.39 µM (≈ 2.83 µg/mL); in assay [18], 1.39 µM (≈ 2.83 µg/mL); in assay [19] it was 0.693 µM and 1.39 µM; in [20], 0.693 µM and 1.39 µM; in [21] it was 5.54 µM (≈ 11.3 µg/mL); in [22], 0.49 µM (≈ 1 µg/mL). The compound further showed an MIC in assay [23] of 2.77 µM (≈ 5.65 µg/mL).
In the case of `CC[C@H](C)[C@H](NC(=O)[C@@H]1CCCN1C(=O)[C@H](Cc1ccccc1)NC(=O)[C@@H](N)Cc1ccccc1)C(=O)N[C@H](C(=O)NCC(=O)N[C@@H](CCCCN)C(=O)N[C@@H](CC(C)C)C(=O)N[C@@H](CC(C)C)C(=O)N[C@@H](CO)C(=O)NCC(=O)N[C@@H](CC(C)C)C(=O)N[C@@H](CC(C)C)C(N)=O)C(C)C` [FFPIVGKLLSGLL], the MIC against Bacillus pumilus is 5.34 µM (≈ 7.49 µg/mL); in [24] it was 5.34 µM (≈ 7.49 µg/mL); against Pseudomonas aeruginosa, 3.56 µM (≈ 5 µg/mL); in the assay on Bacillus cereus, not below 53.4 µM; in [25], not below 42.7 µM; in [26], 5.34 µM (≈ 7.49 µg/mL). Further, the MIC with Shigella dysenteriae came out at 14.2 µM (≈ 20 µg/mL); in assay [27], 3.56 µM (≈ 5 µg/mL).
